Assays:
[1] = test system: idiopathic pulmonary fibrosis (IPF); design: method as in PMID 21992121, PMID 24836310; conditions: patients with IPF, 52-week treatment period; cited from earlier work
[2] = Population pharmacokinetic analysis in healthy subjects after intravenous administration of nintedanib (one-compartment model); assay type: in vivo, human; conditions: human, plasma, estimate (RSE%)
Description: The pharmacokinetic profile of BIBF 1202 was best described by a one-compartment model with first-order elimination (see Online Resource Fig. S1 for model structure). To account for formation of BIBF 1202 in the intestine or via hepatic first-pass effect, a first-order absorption with lag time (ALAG2) was implemented as per nintedanib absorption. The relative bioavailability (F2) and the absorption-rate constant (k a2) were implemented as functions of nintedanib F1 and k a, respectively (substantial drop in OFV as compared to a model, where F2 and k a2 were estimated independently of F1 and k a). This parametrization accounted for correlations between nintedanib and BIBF 1202 parameters and replaced the full variance–covariance matrix which was not applied due to the sequential modeling approach used. The rate of formation of BIBF 1202 (k met) during nintedanib systemic elimination was accounted by defining it as a function of nintedanib clearance: k met = CL/V2*ffM, where CL and V2 denote the clearance and central volume of distribution of nintedanib respectively, and ffM denotes the proportion of the nintedanib elimination resulting in BIBF 1202 formation. Due to the lack of data for BIBF 1202 given as an intravenous (IV) infusion, several parameter estimates were not identifiable (ffM, BIBF 1202 apparent volume of distribution [V3/F]) and were, therefore, fixed. The value for ffM was derived from pharmacokinetic data after IV administration of nintedanib (Online Resource Table S4) and the ratio of V3/F–V2/F was fixed based on information observed in rats. […] In addition to the (inter-individual) variability of F2 induced by the variability in F1 (F2 being proportional to F1), additional IIV could be implemented for F2.
Table S4 Structural parameters for nintedanib and BIBF 1202 from a population pharmacokinetic analysis based on healthy subjects (n=23^a, 372 observations) after intravenous administration of nintedanib
One subject (3 mg dose) was excluded from analysis due to increasing plasma concentrations of nintedanib after end of infusion

[3] = design: method as in ref 13, 21, 22 = [13]; 13. Boehringer Ingelheim (2017) OFEV® (nintedanib) capsules, for oral use; Prescribing information, revised: 08/2017. http://docs.boehringer-ingelheim.com/Prescribing%20Information/PIs/Ofev/ofev.pdf . || [21]; 21. Boehringer Ingelheim (2013) Relative bioavailability of nintedanib given alone and in combination with ketoconazole at steady state in healthy male volunteers (an open-label, randomised, two-way c || [22]; 22. Boehringer Ingelheim (2013) Relative bioavailability of a single oral dose of nintedanib given alone and in combination with multiple oral doses of rifampicin in healthy male volunteers (an open-l); conditions: cited from earlier work
[4] = Phase I trial; cited from earlier work
P-glycoprotein (P-gp) = test system: P-glycoprotein (P-gp); design: method as in ref 13, 21, 22 = [13]; 13. Boehringer Ingelheim (2017) OFEV® (nintedanib) capsules, for oral use; Prescribing information, revised: 08/2017. http://docs.boehringer-ingelheim.com/Prescribing%20Information/PIs/Ofev/ofev.pdf . || [21]; 21. Boehringer Ingelheim (2013) Relative bioavailability of nintedanib given alone and in combination with ketoconazole at steady state in healthy male volunteers (an open-label, randomised, two-way c || [22]; 22. Boehringer Ingelheim (2013) Relative bioavailability of a single oral dose of nintedanib given alone and in combination with multiple oral doses of rifampicin in healthy male volunteers (an open-l); conditions: cited from earlier work
[5] = cited from earlier work
[6] = design: method as in ref 34 = [34]; 34. Boehringer Ingelheim (2015) Pharmacokinetics, safety and tolerability of nintedanib single oral dose in male and female patients with different degrees of hepatic impairment (Child-Pugh classifica); conditions: Child–Pugh classification, subjects with liver cirrhosis; cited from earlier work

COC(=O)c1ccc2c(c1)NC(=O)/C2=C(\Nc1ccc(N(C)C(=O)CN2CCN(C)CC2)cc1)c1ccccc1 [nintedanib]
rate of decline in forced vital capacity [1]: significant reduction | clearance ([2]; healthy subjects (n=23), single intravenous nintedanib infusion 1, 3 or 6 mg, data of absolute bioavailability study [7], read-out: CL, total body clearance for nintedanib (converted)): 2570 mL/min | Vd ([2]; healthy subjects, intravenous nintedanib, read-out: V2, volume of distribution for nintedanib): 60.9 L | increase of nintedanib exposure on co-administration with ketoconazole ([3]; 400 mg ketoconazole (potent P-gp inhibitor)): 60% | decrease of nintedanib exposure on co-administration with rifampicin ([3]; 600 mg rifampicin (potent P-gp inducer)): 50% | increase of exposure (AUC0−∞) by food [4]: 20% | increase of maximum plasma concentrations (Cmax) by food [4]: 20% | substrate of P-glycoprotein (P-gp) (P-glycoprotein (P-gp)): substrate | absolute bioavailability [5]: about 5% | dose proportionality of total and peak systemic exposures [5]: dose-proportional | geometric mean terminal elimination half-life [5]: 10 to 15 h | total fraction of nintedanib and its metabolites absorbed ([5]; estimated): 23% | time of peak plasma concentrations after oral dosing ([5]; patients with solid tumors): 2 to 4 h | time to steady state ([5]; twice-daily dosing): ≤ 7 days | increase in nintedanib exposure, mild hepatic impairment [6]: ~2 fold | increase in nintedanib exposure, moderate hepatic impairment [6]: ~8 fold
